Measured values reported in US7846671B2, “Methods of screening for agents that modulate the interaction of RGS and Gαq and urinary incontinence” (Bristol-Myers Squibb Company, priority 2002, dated 2010).
Entries after “also recorded” stand apart in the source; their conditions may differ.

Key:
RGS7/Gq = target: T1, RGS7/Gq (Homo sapiens, UniProt P49802+P50148); assay: Co-immunoprecipitation of Gq with RGS7 from transfected Hek 293 cells; assay type: binding; details: immunoprecipitation blot
T1 sequence (P49802 1-469 isoform P49802-2): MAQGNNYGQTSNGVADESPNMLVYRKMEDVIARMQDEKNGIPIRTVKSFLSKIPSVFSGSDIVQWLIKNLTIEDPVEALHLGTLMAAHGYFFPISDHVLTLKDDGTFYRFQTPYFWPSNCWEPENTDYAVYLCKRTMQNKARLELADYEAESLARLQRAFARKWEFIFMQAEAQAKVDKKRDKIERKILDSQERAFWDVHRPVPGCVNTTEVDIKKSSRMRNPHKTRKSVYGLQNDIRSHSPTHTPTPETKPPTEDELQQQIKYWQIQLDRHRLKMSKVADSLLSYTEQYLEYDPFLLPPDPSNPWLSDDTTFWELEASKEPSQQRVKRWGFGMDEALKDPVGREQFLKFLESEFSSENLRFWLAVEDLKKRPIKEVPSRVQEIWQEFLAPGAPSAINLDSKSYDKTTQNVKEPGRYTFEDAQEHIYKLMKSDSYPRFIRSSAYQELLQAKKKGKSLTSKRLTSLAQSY
T1 sequence (P50148 1-359): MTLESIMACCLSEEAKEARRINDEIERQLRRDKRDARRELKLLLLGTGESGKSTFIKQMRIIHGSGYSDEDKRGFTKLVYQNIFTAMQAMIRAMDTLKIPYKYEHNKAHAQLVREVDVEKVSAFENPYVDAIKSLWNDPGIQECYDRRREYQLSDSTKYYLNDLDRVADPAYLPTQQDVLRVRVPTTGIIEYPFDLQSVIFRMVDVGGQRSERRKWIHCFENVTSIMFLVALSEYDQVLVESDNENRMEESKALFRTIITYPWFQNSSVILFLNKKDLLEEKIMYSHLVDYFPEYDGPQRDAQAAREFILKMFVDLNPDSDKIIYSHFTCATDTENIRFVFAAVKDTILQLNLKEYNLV
T1 sequence (O14775 43-395 partner limits assumed): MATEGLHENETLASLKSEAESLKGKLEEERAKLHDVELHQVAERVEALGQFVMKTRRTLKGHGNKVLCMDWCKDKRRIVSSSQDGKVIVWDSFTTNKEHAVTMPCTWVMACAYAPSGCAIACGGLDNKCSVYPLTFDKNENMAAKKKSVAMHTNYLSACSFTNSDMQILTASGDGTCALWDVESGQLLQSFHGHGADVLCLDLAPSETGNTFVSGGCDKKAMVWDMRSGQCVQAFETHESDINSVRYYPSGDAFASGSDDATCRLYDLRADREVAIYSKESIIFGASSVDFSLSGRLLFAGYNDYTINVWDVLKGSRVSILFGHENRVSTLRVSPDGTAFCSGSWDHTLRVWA
Procedure: Hek 293 cells were transfected with CMV-G alpha qHA, CMV-mycRGS-7 and CMV-Gbeta5. 48 hours later the cells were harvested and lysed. Antibody to the myc epitope was utilized to immunoprecipitate RGS-7 in the presence or absence of ALF4-. The precipitated proteins were split into two fractions and loaded onto gels and western blotted on to nitrocellulose. In FIG. 6, the left blot (1) was probed with anti-myc antibody to detect RGS-7. RGS-7 was immunoprecipitated by the anti-myc antibody in the presence and absence of ALF4-. […] A G alpha q protein band was detected to have associated with RGS-7 and precipitated in the presence of ALF4- (lanes A) but not in the absence of ALF4- (lane B). In the second experiment, RGS-7 was immuno-precipitated again with the Myc epitope to which it was fused and the presence of G alpha q was detected in the presence or absence of ALF4- or different concentrations of Compound III. […] This increase in RGS-7 affinity would be predicted to be the same for other RGS7 family members such as RGS 6,9 and 11, as they have been shown previously to have similar affinities and effects on G alpha q. In addition this assay provides a method for screening for compounds that affect the interaction of RGS proteins and G alpha q.
In FIG. 5B, Compounds I, II and III affect the affinity of Gq and RGS proteins for one another. FIG. 5B is an immunoprecipitation blot of myc tagged RGS which has been probed with an anti hemagglutinin antibody to detect a hemagglutinin tagged Gαq. […] The ability of Compounds I, II and III to increase the affinity of Gq and RGS is a novel mechanism by which one can Gαq activity and such compounds and screens for additional compounds with such activity are useful wherever one desires to antagonize g protein signaling that involves Gαq and RGS proteins. […]

[1] = test system: Gq signaling in Hek 293 kidney cells; assay: [Ca2+]i measurement, carbachol-induced calcium signal in HEK 293 cells; assay type: cell-based, human
Procedure: • 1. HEK 293 or Clonetics primary human bladder smooth muscle cells were plated at a concentration of 7e3 cells/well in Poly-L lysine coated 96 well plates, white with clear bottoms (Costar). • 2. The plates are allowed to attach overnight at 37° C. 5%CO2. The cells were rinsed 2× with Krebs-HEPES buffer and then loaded with 4 uM Fluo4 (Molecular Probes) for 60 minutes in the same buffer containing 1% (wt/vol) Pluronic F-127 and 0.25 mM sulfinpyrazone. • 3. After loading the cells were rinsed 3× with Krebs-HEPES buffer containing 0.5% (wt/vol) BSA (Sigma Chemical) • 4. Buffer alone or buffer containing test compounds, was injected sequentially into separate wells and the fluorescence intensity monitored in a Victor2 96 well plate fluorometer (PE-Wallac). Measurements were taken at 1-s intervals using an excitation wavelength of 485 nm and emissions filter of 535 nm. • 5. Five baseline measurements were taken at 1-s intervals prior to each injection (see FIGS. 4A and 4B).
Calcium assays were run by standard protocols as described above and in Zhu et al., 1998, J. Biol Chem 273:133-142. It is known that calcium signals in response to carbachol have both a Gq and a Go/Gi signaling component. Pertussis toxin is a known inhibitor of Go/Gi signaling in cells. We asked the question if Compound I was inhibiting Gq or Go/Gi signals in Hek 293 kidney cells. […] to block the Go/I but not Gq signals. […] If however Compound I were inhibiting Gq signal specifically, then we would expect the combination of pertussis toxin (hitting Go/Gi) and Gq.

rat bladder strips = assay: Isolated rat bladder strips: inhibition of carbachol-evoked contraction
Procedure: Isolated Rat Bladder Strips
Male rats (Harlan, Sprague Dawley, 250-350 g) were sacrificed by decapitation, the bladder removed and cleaned of connective tissue. Strips of bladder were then cut from the bladder body and each was placed in an organ bath, suspended between a fixed hook and a force transducer, containing oxygenated physiological buffer (composition in mM: NaCl 118.4, KCl 4.7, KH2PO4 1.2, MgSO4 1.3, CaCl2 1.8, glucose 10.1, NaHCO3 25, gassed with 95%O2/5%CO2) and maintained at 37° C. Force generated by the bladder strips was recorded and measured using an AcqKnowledge data acquisition system (AcqKnowledge for MP100WS, Biopac Systems Inc., Goleta, Calif.).
The bladder strips were primed by stimulating them with 10 μM carbachol to evoke a contraction. The strips were then washed multiple times with fresh physiological buffer and allowed to fully relax. Following a period of recovery, the strips were again challenged with 10 μM carbachol to produce a contraction; this contractile response served as the control response. The strips were again washed multiple times and allowed to fully relax (45 minutes). Test compound or vehicle was then added to each organ bath. Following a one hour incubation period, the strips were again stimulated with 10 μM carbachol and the contractile response measured.
The percent inhibition of the carbachol response by the test compounds was calculated by comparing control and post-compound carbachol responses corrected for vehicle effects.

C. elegans = C. elegans compound treatment: neuromuscular and egg-laying phenotypes
Procedure: C. elegans strains were cultured and maintained according to standard procedures (Brenner, 1974; Hodgkin, 1988). All strains were assayed at 20° C. unless otherwise indicated. compound was mixed with killed bacteria slurry (strain OP50, taken through multiple freeze-thaw cycles) to 2× desired final concentration. Adult wildtype (Bristol N2) or mutant hermaphrodites were collected in M9. Worms were mixed 1:1 with compound/bacteria mixture, and plated on peptone-free NGM plates. Plates were allowed to dry, and then placed at 20° C. until assayed. For egg-laying assays, adults were treated overnight with compound. Approximately thirty animals were loaded onto agar pads made on glass slides and examined under Nomarski optics. Animals were scored as egg-laying defective if they contained>comma stage embryos.

Row | Compound | Affinity of RGS7 and Gq (Gq co-precipitated with myc-RGS-7) (RGS7/Gq) | Carbachol induced calcium influxes [1] | Combined effect with pertussis toxin on carbachol calcium signal [1] | Effect on function of human RGS and Gq signaling proteins via Ca++ signaling [1] | Gq versus Go/Gi specificity of calcium signal inhibition ([1]; carbachol) | Relaxation of bladder smooth muscle strips contracted with carbachol (rat bladder strips) | inhibition at 10 µM (rat bladder strips; Rattus norvegicus, 10 μM compound, 1 h incubation, 10 μM carbachol, read-out: Inhibition of the carbachol response) | Neuromuscular defects (pharyngeal pumping, body movement, egg-laying) (C. elegans) | inhibition at 3 µM (rat bladder strips; Rattus norvegicus, 3 μM compound, 1 h incubation, 10 μM carbachol, read-out: Inhibition of the carbachol response)
1 | O=c1[nH]c(-c2ccc(C(F)(F)F)cc2)nn1-c1cc(Cl)ccc1O [Compound I] | increase the affinity of RGS7 with Gq; also recorded: clearly increase the affinity of Gq for RGS | blocked | cumulative | clearly able to effect the function of Gq and RGS | specifically inhibiting Gq signaling and not Go/Gi | capable of relaxing strips of bladder smooth muscle | 40 to 60% | causes neuromuscular defects | 
2 | Alf4- [reference compound] | increases its affinity with RGS |  |  |  |  |  |  |  | 
3 | O=c1[nH]c(-c2ccc(Br)s2)nn1-c1cc(Cl)c(Br)cc1O [Compound II, 2-(4-bromo-5-chloro-2-hydroxyphenyl)-2,4-dihydro-5-(5-bromothien-2-yl)-3H-1,2,4-triazol-3-one] | clearly increase the affinity of Gq for RGS | blocked |  |  |  |  |  |  | 20 to 40%
